In PubChem BioAssay (NCI):
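A five-concentration, 48-hour dose response in 96-well plates underlies each endpoint, interpolated linearly between surrounding concentrations. GI50: concentration for 50% inhibition of growth. The concentration for full growth arrest is given as TGI.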

Legend:
Test in all cases: growth of human tumour cells (NCI), 48 h
[1] = system: NCI-H522 lung
[2] = system: HCC-2998 colon
[3] = system: SF-295 CNS
[4] = system: UACC-62 melanoma
[5] = system: SF-539 CNS
[6] = system: NCI/ADR-RES ovarian
[7] = system: A498 renal
[8] = system: PC-3 prostate
[9] = system: TK-10 renal
[10] = system: MOLT-4 leukemia

Compound | TGI [1] [µM] | TGI [2] [µM] | TGI [3] [µM] | TGI [4] [µM] | TGI [5] [µM] | TGI [6] [µM] | TGI [7] [µM] | TGI [8] [µM] | TGI [9] [µM] | TGI [10] [µM] | GI50 [1] [µM] | GI50 [2] [µM] | GI50 [3] [µM] | GI50 [4] [µM] | GI50 [5] [µM] | GI50 [6] [µM] | GI50 [7] [µM] | GI50 [8] [nM] | GI50 [9] [µM] | GI50 [10] [µM]
CC(C)=CC1CC(C)C2(CCC3(C)CC4C(C(=O)CC4(C)O)/C(C=O)=C\CC32)O1 (centres undefined) | 0.097 | 0.328 | 0.515 | 0.368 | 0.239 | 0.443 | 0.979 | 0.14 | 0.0596 | 0.0483 |  |  |  |  |  |  |  |  |  | 
O=C(/C=C\c1ccc2ccccc2n1)c1cc(Cl)ccc1O | 16 | 28.3 | 44.2 | 21 | 23.2 | 8.04 | > 100 | 38.2 | 85.3 | 24.1 | 2.88 | 14.6 | 10.3 | 7.51 | 7.15 | 2.6 | 28.9 | 6470 | 7.88 | 3.12
N=C(N)c1ccc(-c2ccc(-c3ccc(F)cc3)o2)o1 | 2.9 | 2.81 | 3.05 | 3.27 | 3.08 | 4.1 | 5.95 | 2.57 | 2.92 | 4.68 | 1.36 | 1.37 | 1.51 | 1.74 | 1.63 | 1.67 | 1.9 | 1220 | 1.55 | 1.6
COC(=O)[C@]12CC=C3O[C@@H]4OC5(CCCCC5)O[C@@H]4[C@H]3C1C(=O)C=CC2=O (some centres undefined) | 15.4 | 31.4 | 42.2 | 30.2 | 34.8 | 38.5 | 33.6 | 52.3 | 31.4 | 21.4 |  |  |  |  |  |  |  |  |  | 
COc1ccc(-n2c3c(c4c(CN(C)C)c(O)c(C)cc42)CCc2ccccc2C3=O)cc1 | 50.7 | 67.8 | > 100 | > 100 | > 100 | 45.2 | > 100 | 50.3 | > 100 | 65.7 | 13.4 | 23.4 | 35.6 | 30.6 | 26.9 | 17.9 | 60 | 11700 | 47.2 | 22.9
O=C1OCC2=C1C(c1cccc(C(F)(F)F)c1)c1cc3c(cc1N2CCO)CCC3 (centres undefined) | 1.35 | 6.76 | 6.21 | 9.15 | 0.46 | 6.82 | 0.397 | 7.56 | 10.9 | 15.5 | 0.137 | 0.177 | 0.138 | 0.174 | 0.132 | 0.153 | 0.0804 | 194 | 0.359 | 0.27
CN1CCC(n2[nH]c(-c3ccccc3)c(Cc3ccccc3)c2=O)CC1 | > 100 | > 100 | > 100 | > 100 | > 100 | > 100 | > 100 | > 100 | > 100 | 89.7 |  |  |  |  |  |  |  |  |  | 
COC(=O)[C@@H]1CCCN1C(=O)[C@H]1CCCN1C(=O)[C@@H](Cc1c[nH]c2ccccc12)NC(=S)Nc1cc(C(F)(F)F)cc(C(F)(F)F)c1 | 6.65 | 4.3 | 5.71 | 6.29 | 14.3 | 21.4 | 7.11 | 3.98 | 6.62 | 7.98 | 2.47 | 2.05 | 2.27 | 2.38 | 3.83 | 3.96 | 1.01 | 1750 | 2.58 | 2.88
Cc1ccccc1C(C(=O)NC1CCCCC1)N(C(=O)Cn1ccnc1C)c1cccc(F)c1 (centres undefined) | > 100 | > 100 | > 65.6 | > 100 | > 66.5 | > 100 | > 83.9 | > 100 | 71.7 | > 100 | > 100 | > 100 | 28.8 | 59.3 | 33.1 | > 100 | 27.1 | > 100000 | 27.5 | > 100
CCN1CCC(CC(=O)Nc2n[nH]c3nc(-c4cccs4)c(Br)cc23)CC1 | > 16.8 | > 25 | > 25 | 11 | > 22.2 | > 25 | > 25 | > 25 | > 21.4 | 24.5 | 6.74 | 12 | 10.7 | 5.26 | 9.22 | > 20.7 | 7.87 | 10400 | 5.81 | 9.07
COc1ccc(-c2cc(-c3nnc(SCC(=O)Nc4ccc(C(C)=O)cc4)o3)c3ccccc3n2)cc1 | > 100 | > 100 | > 100 | > 100 | > 100 | > 100 | 72.7 | > 100 | 78.6 | > 100 | 30.2 | > 100 | 26.4 | 27.1 | 33.9 | > 100 | 24.8 | > 100000 | 28.7 | > 100
CC[C@@]1(O)C(=O)OCc2c1cc1n(c2=O)Cc2cc3c(NC(=O)CN)cccc3nc2-1 | 56.3 | 9.05 | 20.4 | 7.42 |  | > 100 | 3.27 | > 100 | > 81.7 | 0.161 |  |  |  |  |  |  |  |  |  | 
Cc1ccc(Oc2nc3ccccc3cc2-c2nnc(Cn3c(COc4ccccc4)nc4ccccc43)o2)cc1 | 21.1 | 15.3 | 14.1 | 20.7 |  | 10.9 | 18.7 | 15.4 | 9.92 | 7.89 | 6.34 | 4.4 | 3.48 | 5.62 |  | 2.84 | 0.409 | 2710 | 3.91 | 2.18
CC(=O)OC12CC(C)C3(O)C4C=C(C)C(=O)[C@@]4(O)CC(CO)=C[C@H]3C1C2(C)C (some centres undefined) | > 1000 |  |  | > 1000 | > 1000 | > 1000 |  | > 1000 |  | > 1000 | > 1000 | 2.35 |  |  | > 1000 | > 1000 | 0.346 | 228 |  | 
